Assay results published in PMC3145970, “Specific CLK Inhibitors from a Novel Chemotype for Regulation of Alternative Splicing” (Chemistry & Biology, 2011).
Where two headings read alike, the source gives them in different places.

Key:
Assay in all cases: Thermal stability shift assay
Assay type in all cases: binding
ALK2 = biological target: T1, ALK2 (Homo sapiens, UniProt Q04771); details: read-out: Tm shift ALK2
T1 sequence (Q04771 21-509): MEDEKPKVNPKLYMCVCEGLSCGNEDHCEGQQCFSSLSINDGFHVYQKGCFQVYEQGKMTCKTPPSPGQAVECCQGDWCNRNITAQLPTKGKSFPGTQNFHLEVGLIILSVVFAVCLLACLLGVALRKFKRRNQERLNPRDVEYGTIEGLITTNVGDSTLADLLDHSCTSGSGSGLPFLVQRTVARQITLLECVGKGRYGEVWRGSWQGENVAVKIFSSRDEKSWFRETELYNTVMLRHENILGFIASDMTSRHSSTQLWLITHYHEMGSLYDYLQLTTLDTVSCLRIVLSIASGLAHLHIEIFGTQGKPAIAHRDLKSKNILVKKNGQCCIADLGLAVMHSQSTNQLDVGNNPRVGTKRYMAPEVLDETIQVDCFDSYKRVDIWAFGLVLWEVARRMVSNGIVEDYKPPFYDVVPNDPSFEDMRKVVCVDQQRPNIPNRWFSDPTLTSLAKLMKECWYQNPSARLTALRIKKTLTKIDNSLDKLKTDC
Procedure: (§1) Thermal denaturation experiments were carried out in an Mx3005p real-time PCR machine (Agilent) using a protein concentration of 2 μM and an inhibitor concentration of 10 μM. Samples were buffered in 10 mM HEPES (pH 7.5), 500 mM NaCl and a 1:1000 dilution of SyproOrange (Invitrogen). The assay and data evaluation were carried out as described ([Bullock et al., 2005])

BARK2 = biological target: T2, BARK2 (Homo sapiens, UniProt P35626); details: read-out: Tm shift BARK2
T2 sequence (P35626 1-688): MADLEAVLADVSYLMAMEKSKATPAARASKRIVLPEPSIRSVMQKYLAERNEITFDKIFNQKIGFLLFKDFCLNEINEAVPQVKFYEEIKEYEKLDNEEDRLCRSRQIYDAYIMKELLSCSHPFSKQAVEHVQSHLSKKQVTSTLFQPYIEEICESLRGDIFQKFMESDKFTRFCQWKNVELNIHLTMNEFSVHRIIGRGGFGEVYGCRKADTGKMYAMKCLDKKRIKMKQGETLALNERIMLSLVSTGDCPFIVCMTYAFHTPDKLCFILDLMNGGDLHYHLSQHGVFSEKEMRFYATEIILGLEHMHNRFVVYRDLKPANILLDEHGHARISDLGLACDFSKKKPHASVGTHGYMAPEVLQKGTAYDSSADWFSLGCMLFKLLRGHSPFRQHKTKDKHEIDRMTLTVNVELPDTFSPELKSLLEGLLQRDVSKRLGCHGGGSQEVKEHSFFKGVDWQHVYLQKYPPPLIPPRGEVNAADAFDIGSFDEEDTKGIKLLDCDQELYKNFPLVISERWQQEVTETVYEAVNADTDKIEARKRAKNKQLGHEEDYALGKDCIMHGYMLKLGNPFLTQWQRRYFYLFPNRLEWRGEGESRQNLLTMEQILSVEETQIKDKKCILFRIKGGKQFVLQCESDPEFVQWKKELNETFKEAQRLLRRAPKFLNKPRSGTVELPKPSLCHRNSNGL
Procedure: as §1

CDK8 = CDK8 (Homo sapiens, UniProt P49336); details: read-out: Tm shift CDK8
Procedure: as §1

CHK2 = CHK2 (Homo sapiens, UniProt O96017); details: read-out: Tm shift CHK2
Procedure: as §1

CaMK1d = CaMK1d (Homo sapiens, UniProt Q8IU85); details: read-out: Tm shift CaMK1d
Procedure: as §1

MSSK1 = biological target: T3, MSSK1 (Homo sapiens, UniProt Q9UPE1); details: read-out: Tm shift MSSK1
T3 construct: purchased in-house (SGC Oxford thermal shift panel)
Procedure: as §1

MST3 = biological target: T4, MST3 (Homo sapiens, UniProt Q9Y6E0); details: read-out: Tm shift MST3
T4 construct: purchased in-house (SGC Oxford thermal shift panel)
Procedure: as §1

NDR2 = biological target: T5, NDR2 (Homo sapiens, UniProt Q9Y2H1); details: read-out: Tm shift NDR2
T5 construct: purchased in-house (SGC Oxford thermal shift panel)
Procedure: as §1

OSR1 = biological target: T6, OSR1 (Homo sapiens, UniProt O95747); details: read-out: Tm shift OSR1
T6 construct: purchased in-house (SGC Oxford thermal shift panel)
Procedure: as §1

SLK = SLK (Homo sapiens, UniProt Q9H2G2); details: read-out: Tm shift SLK
Procedure: as §1

VRK1 = biological target: T7, VRK1 (Homo sapiens, UniProt Q99986); details: read-out: Tm shift VRK1
T7 sequence (Q99986 1-396): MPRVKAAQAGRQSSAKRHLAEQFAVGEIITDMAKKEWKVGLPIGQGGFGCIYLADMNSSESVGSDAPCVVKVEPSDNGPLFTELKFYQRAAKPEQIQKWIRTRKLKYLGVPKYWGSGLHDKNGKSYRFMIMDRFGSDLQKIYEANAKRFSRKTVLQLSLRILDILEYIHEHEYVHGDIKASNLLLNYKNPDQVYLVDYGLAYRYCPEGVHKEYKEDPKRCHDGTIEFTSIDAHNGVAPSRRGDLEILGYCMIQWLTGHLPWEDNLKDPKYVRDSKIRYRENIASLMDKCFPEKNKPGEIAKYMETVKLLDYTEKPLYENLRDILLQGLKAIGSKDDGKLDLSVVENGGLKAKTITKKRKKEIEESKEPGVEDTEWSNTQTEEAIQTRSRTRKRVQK
Procedure: as §1

ZC2/TNIK = ZC2/TNIK (Homo sapiens, UniProt Q9UKE5); details: read-out: Tm shift ZC2/TNIK
Procedure: as §1

Sequence of CDK8 (P49336 whole entry): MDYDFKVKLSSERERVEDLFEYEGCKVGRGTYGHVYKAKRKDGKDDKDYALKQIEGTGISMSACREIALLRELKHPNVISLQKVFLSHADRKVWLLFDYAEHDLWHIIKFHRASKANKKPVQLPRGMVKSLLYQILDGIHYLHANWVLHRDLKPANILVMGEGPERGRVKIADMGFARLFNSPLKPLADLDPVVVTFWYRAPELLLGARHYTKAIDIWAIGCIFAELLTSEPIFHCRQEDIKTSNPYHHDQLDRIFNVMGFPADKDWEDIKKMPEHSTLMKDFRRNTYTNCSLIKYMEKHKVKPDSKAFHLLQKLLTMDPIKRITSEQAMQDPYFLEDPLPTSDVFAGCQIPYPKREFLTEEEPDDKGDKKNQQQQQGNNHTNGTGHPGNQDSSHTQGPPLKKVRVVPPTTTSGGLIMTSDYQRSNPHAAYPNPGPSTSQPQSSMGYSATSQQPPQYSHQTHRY
T4 sequence (Q9Y6E0 whole entry): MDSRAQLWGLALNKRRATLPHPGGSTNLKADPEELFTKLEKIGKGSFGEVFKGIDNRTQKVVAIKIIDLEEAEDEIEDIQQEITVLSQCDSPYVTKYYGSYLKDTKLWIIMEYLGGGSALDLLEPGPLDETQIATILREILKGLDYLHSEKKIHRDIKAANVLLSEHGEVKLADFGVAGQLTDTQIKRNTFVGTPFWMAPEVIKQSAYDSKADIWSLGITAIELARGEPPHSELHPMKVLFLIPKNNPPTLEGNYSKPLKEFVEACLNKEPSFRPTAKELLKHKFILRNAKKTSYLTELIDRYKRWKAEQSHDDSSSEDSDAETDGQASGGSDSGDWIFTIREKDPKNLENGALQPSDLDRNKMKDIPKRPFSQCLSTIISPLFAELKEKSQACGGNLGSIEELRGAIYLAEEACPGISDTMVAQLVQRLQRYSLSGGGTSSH
Sequence of CaMK1d (Q8IU85 whole entry): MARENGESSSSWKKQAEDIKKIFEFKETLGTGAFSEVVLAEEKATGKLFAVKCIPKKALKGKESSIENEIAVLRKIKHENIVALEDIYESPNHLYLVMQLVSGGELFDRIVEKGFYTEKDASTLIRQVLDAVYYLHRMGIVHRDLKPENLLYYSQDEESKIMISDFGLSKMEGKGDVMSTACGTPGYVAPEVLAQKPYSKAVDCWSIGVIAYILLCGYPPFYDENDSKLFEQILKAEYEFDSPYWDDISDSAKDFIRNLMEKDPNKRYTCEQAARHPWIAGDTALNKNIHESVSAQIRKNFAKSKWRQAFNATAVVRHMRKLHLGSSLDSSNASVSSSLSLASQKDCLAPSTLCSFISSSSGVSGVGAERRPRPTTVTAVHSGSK
T5 sequence (Q9Y2H1 whole entry): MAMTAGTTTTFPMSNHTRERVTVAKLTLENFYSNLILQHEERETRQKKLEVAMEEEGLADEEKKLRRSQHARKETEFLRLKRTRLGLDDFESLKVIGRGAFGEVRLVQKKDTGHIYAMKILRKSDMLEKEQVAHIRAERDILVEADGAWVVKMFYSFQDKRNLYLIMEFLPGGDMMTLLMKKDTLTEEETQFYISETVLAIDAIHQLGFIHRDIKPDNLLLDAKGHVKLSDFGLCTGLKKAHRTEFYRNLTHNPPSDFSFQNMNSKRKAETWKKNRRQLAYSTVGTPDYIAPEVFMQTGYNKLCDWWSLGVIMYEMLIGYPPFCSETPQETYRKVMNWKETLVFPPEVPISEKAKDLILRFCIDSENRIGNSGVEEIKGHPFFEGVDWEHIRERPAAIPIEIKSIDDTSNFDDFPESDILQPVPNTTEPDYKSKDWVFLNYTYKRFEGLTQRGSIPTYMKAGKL
T3 sequence (Q9UPE1 whole entry): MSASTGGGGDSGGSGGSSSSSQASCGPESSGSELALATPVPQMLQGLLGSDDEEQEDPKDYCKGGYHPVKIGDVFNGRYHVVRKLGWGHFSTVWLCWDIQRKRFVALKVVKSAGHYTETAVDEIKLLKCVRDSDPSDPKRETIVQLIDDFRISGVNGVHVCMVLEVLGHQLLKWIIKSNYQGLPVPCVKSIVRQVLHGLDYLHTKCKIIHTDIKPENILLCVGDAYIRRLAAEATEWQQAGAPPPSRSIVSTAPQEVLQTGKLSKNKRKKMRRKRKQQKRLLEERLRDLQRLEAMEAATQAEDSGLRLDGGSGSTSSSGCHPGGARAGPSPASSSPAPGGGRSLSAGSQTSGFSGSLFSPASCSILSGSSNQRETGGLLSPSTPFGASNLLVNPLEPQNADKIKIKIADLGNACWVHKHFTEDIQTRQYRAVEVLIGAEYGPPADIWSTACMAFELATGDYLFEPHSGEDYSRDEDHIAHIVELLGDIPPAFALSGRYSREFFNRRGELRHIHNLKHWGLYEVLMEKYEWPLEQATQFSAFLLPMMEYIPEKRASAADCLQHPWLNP
T6 sequence (O95747 whole entry): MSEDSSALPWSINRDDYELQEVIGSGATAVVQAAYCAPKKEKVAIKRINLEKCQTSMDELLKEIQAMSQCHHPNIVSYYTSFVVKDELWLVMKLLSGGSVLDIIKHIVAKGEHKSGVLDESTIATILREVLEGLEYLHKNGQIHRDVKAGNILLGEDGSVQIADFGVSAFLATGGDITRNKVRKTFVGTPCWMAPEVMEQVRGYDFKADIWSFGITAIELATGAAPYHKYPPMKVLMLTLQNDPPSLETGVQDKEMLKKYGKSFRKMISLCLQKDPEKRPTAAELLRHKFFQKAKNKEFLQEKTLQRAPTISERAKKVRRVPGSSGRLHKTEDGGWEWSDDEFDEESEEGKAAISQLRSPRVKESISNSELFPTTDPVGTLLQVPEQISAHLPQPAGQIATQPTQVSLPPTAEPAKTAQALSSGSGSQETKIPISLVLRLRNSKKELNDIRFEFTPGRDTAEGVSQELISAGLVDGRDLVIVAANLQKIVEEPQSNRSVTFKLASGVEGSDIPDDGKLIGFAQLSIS
Sequence of ZC2/TNIK (Q9UKE5 whole entry): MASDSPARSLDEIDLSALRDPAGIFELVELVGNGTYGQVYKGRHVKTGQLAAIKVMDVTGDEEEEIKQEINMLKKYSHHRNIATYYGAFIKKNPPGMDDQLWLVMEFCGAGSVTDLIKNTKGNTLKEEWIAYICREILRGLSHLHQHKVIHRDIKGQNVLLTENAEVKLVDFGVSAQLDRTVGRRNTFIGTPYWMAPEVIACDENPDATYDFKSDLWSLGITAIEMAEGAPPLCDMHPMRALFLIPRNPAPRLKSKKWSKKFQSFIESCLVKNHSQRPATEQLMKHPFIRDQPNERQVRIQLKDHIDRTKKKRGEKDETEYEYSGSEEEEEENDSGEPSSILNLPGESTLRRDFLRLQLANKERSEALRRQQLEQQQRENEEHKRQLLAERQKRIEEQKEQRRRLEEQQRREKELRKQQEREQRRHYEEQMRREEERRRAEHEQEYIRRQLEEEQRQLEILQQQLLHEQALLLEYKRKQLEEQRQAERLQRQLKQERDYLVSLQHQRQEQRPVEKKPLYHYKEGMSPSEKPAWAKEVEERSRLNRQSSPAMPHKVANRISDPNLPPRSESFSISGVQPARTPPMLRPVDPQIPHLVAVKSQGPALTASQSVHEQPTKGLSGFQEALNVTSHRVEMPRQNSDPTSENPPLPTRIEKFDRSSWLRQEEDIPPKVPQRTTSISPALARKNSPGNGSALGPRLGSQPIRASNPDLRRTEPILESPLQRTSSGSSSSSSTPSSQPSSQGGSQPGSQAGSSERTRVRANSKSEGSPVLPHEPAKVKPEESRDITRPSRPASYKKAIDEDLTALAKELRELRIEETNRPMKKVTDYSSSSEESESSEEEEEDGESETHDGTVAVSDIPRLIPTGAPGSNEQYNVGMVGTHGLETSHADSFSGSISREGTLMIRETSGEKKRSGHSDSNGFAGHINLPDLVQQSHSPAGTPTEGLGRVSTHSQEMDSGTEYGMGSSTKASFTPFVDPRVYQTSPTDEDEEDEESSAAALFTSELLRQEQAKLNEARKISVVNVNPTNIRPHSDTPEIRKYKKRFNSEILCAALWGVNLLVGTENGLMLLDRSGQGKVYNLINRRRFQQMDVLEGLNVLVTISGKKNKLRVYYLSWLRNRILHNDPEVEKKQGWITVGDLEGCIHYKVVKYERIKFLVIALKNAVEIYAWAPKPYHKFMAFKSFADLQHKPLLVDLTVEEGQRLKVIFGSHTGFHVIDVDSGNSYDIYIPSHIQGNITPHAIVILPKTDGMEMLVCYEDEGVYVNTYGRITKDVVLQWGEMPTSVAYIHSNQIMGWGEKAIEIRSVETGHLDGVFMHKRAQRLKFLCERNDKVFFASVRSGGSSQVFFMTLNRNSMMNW
Sequence of CHK2 (O96017 whole entry): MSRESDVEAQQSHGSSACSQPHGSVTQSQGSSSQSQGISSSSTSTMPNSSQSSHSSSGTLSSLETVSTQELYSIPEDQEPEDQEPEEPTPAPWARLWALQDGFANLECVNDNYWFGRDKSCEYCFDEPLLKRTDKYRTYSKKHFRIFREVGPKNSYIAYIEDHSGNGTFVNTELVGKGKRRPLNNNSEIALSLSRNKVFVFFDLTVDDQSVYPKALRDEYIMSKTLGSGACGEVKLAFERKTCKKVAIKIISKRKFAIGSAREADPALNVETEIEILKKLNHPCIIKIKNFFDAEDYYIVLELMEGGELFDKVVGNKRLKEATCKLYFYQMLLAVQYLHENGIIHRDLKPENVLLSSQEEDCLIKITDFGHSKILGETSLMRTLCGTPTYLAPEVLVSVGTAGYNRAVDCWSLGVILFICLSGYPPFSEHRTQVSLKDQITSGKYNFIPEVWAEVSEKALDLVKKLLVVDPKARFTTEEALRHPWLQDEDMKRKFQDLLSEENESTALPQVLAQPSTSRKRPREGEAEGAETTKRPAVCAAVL

| ΔTm at 10 µM (ALK2; inhibitor 10 μM) [°C] | ΔTm at 10 µM (BARK2; inhibitor 10 μM) [°C] | ΔTm at 10 µM (CDK8; inhibitor 10 μM) [°C] | ΔTm at 10 µM (CHK2; inhibitor 10 μM) [°C] | ΔTm at 10 µM (CaMK1d; inhibitor 10 μM) [°C] | ΔTm at 10 µM (MSSK1; inhibitor 10 μM) [°C] | ΔTm at 10 µM (MST3; inhibitor 10 μM) [°C] | ΔTm at 10 µM (NDR2; inhibitor 10 μM) [°C] | ΔTm at 10 µM (OSR1; inhibitor 10 μM) [°C] | ΔTm at 10 µM (SLK; inhibitor 10 μM) [°C] | ΔTm at 10 µM (VRK1; inhibitor 10 μM) [°C] | ΔTm at 10 µM (ZC2/TNIK; inhibitor 10 μM) [°C] | SMILES | ΔTm at 10 µM (ZC2/TNIK) [°C] | ΔTm at 10 µM (ALK2) [°C] | ΔTm at 10 µM (BARK2) [°C] | ΔTm at 10 µM (CDK8) [°C] | ΔTm at 10 µM (CHK2) [°C] | ΔTm at 10 µM (CaMK1d) [°C] | ΔTm at 10 µM (MSSK1) [°C] | ΔTm at 10 µM (MST3) [°C] | further results |
| --- | --- | --- | --- | --- | --- | --- | --- | --- | --- | --- | --- | --- | --- | --- | --- | --- | --- | --- | --- | --- | --- |
| -0.5 | 0.2 | 0.4 | 0.3 | -0.4 | 0.3 | -1.1 | -0.1 | 0 | -0.7 | 0.2 | 0.1 | CCOC(=O)c1c(C(C#N)=CN(C)C)c2ccc(Cl)c(Cl)c2n1C (mixture of isomers) [compound 2, (E/Z)-Ethyl 6,7-Dichloro-3-[1-Cyano-2-(Dimethylamino)Vinyl]-1-Methyl-1H-Indole-2-Carboxylate] | – | – | – | – | – | – | – | – | – |
| – | – | – | – | – | – | – | – | – | – | – | – | CCOC(=O)c1c(/C(C#N)=C\N)c2ccc(Cl)c(Cl)c2n1C [KH-CB19, (E)-Ethyl 3-(2-Amino-1-Cyanovinyl)-6,7-Dichloro-1-Methyl-1H-Indole-2-Carboxylate] | 0.2 | 0.5 | -0.4 | 1.5 | 0.4 | 0.1 | 0.2 | 0.2 | ΔTm at 10 µM (NDR2): -0.2 °C; ΔTm at 10 µM (OSR1): 0.3 °C; ΔTm at 10 µM (SLK): 0 °C; ΔTm at 10 µM (VRK1): 0 °C |
| – | – | – | – | – | – | – | – | – | – | – | – | CCOC(=O)c1c(C(C#N)=CN)c2ccc(Cl)c(Cl)c2n1C (mixture of isomers) [KH-CB20, (E/Z)-Ethyl 3-(2-Amino-1-Cyanovinyl)-6,7-Dichloro-1-Methyl-1H-Indole-2-Carboxylate] | -0.1 | 0.8 | -0.1 | 1.3 | 1 | -0.6 | 0.5 | -0.1 | ΔTm at 10 µM (NDR2): -0.3 °C; ΔTm at 10 µM (OSR1): 0.3 °C; ΔTm at 10 µM (SLK): 0.1 °C; ΔTm at 10 µM (VRK1): 0.2 °C |
| 0.5 | 0.3 | 2.5 | 0.5 | -0.3 | 0.3 | 0.1 | 0 | 0.3 | -0.6 | -0.4 | 0 | Cn1c2c(Cl)c(Cl)ccc2c2c(C#N)c[nH]c(=O)c21 [compound 3, 7,8-Dichloro-9-Methyl-1-Oxo-2,9-Dihydro-1H-Pyrido[3,4-b]Indole-4-Carbonitrile] | – | – | – | – | – | – | – | – | – |

| SMILES | ΔTm at 10 µM (ALK2; inhibitor 10 μM) [°C] | ΔTm at 10 µM (BARK2; inhibitor 10 μM) [°C] | ΔTm at 10 µM (CDK8; inhibitor 10 μM) [°C] | ΔTm at 10 µM (CHK2; inhibitor 10 μM) [°C] | ΔTm at 10 µM (CaMK1d; inhibitor 10 μM) [°C] | ΔTm at 10 µM (MSSK1; inhibitor 10 μM) [°C] | ΔTm at 10 µM (MST3; inhibitor 10 μM) [°C] | ΔTm at 10 µM (NDR2; inhibitor 10 μM) [°C] | ΔTm at 10 µM (OSR1; inhibitor 10 μM) [°C] | ΔTm at 10 µM (SLK; inhibitor 10 μM) [°C] | ΔTm at 10 µM (VRK1; inhibitor 10 μM) [°C] | ΔTm at 10 µM (ZC2/TNIK; inhibitor 10 μM) [°C] | ΔTm at 10 µM (ZC2/TNIK) [°C] | ΔTm at 10 µM (ALK2) [°C] | ΔTm at 10 µM (BARK2) [°C] | ΔTm at 10 µM (CDK8) [°C] | ΔTm at 10 µM (CHK2) [°C] | ΔTm at 10 µM (CaMK1d) [°C] | ΔTm at 10 µM (MSSK1) [°C] | ΔTm at 10 µM (MST3) [°C] | further results |
| --- | --- | --- | --- | --- | --- | --- | --- | --- | --- | --- | --- | --- | --- | --- | --- | --- | --- | --- | --- | --- | --- |
| NC1=NC(=O)/C(=C2\CCNC(=O)c3[nH]c(Br)cc32)N1 [Hymenialdisine, hymenialdisine, reference compound] | 2.1 | -0.3 | 0.1 | 5.7 | 0 | 0.3 | 1 | 0.9 | 0.5 | 2.1 | 2 | – | 3.4 | – | – | – | – | – | – | – | – |
